# Data published in PubChem BioAssay AID2060504 (Molecular Pharmacology Branch, DTP, NCI, 2025).
# Tested on: 636577-100-R-J1-PDC complex spheroid viability
# Test: Anticancer human tumor 636577-100-R-J1-PDC patient-derived endometrial adenocarcinoma cell line growth inhibition [GQUAD]
# Details: for IC50: curve of first compound; for viability, T/C: stronger effect = lower value
# Procedure, shortened: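 Viability of tumor cells grown as complex spheroids with endothelial and stromal cells, exposed to drug combinations. Top concentration at or near clinical Cmax (else 10 microM), diluted in half-log increments.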
# [1] = second compound 0.0316 µM, first compound 0.0316 µM
# [2] = second compound 0.0316 µM, first compound 0.1 µM
# [3] = second compound 0.0316 µM, first compound 0.316 µM
# [4] = second compound 0.0316 µM, first compound 1 µM
# [5] = second compound 0.0316 µM, first compound 3.16 µM
# [6] = second compound 0.0316 µM, first compound 10 µM
# [7] = second compound 0.1 µM, first compound 0.0316 µM
# [8] = second compound 0.1 µM, first compound 0.1 µM
# [9] = second compound 0.1 µM, first compound 0.316 µM
# [10] = second compound 0.1 µM, first compound 1 µM
# [11] = second compound 0.1 µM, first compound 3.16 µM
# [12] = second compound 0.1 µM, first compound 10 µM
# [13] = second compound 0.316 µM, first compound 0.0316 µM
# [14] = second compound 0.316 µM, first compound 0.1 µM
# [15] = second compound 0.316 µM, first compound 0.316 µM
# [16] = second compound 0.316 µM, first compound 1 µM
# [17] = second compound 0.316 µM, first compound 3.16 µM
# [18] = second compound 0.316 µM, first compound 10 µM
# [19] = second compound 1 µM, first compound 0.0316 µM
# [20] = second compound 1 µM, first compound 0.1 µM
# [21] = second compound 1 µM, first compound 0.316 µM
# [22] = second compound 1 µM, first compound 1 µM
# [23] = second compound 1 µM, first compound 3.16 µM
# [24] = second compound 1 µM, first compound 10 µM
# [25] = second compound 3.16 µM, first compound 0.0316 µM
# [26] = second compound 3.16 µM, first compound 0.1 µM
# [27] = second compound 3.16 µM, first compound 0.316 µM
# [28] = second compound 3.16 µM, first compound 1 µM
# [29] = second compound 3.16 µM, first compound 3.16 µM
# [30] = second compound 3.16 µM, first compound 10 µM
# [31] = second compound 10 µM, first compound 0.0316 µM
# [32] = second compound 10 µM, first compound 0.1 µM
# [33] = second compound 10 µM, first compound 0.316 µM
# [34] = second compound 10 µM, first compound 1 µM
# [35] = second compound 10 µM, first compound 3.16 µM
# [36] = second compound 10 µM, first compound 10 µM
# 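Further: viability read after seven days of drug exposure.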
# 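Wherever viability, T/C is given: luminescence signal used as a proxy for viable cells; 100% = DMSO vehicle control wells.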
smiles,measurement,setting,value
COc1ccc([C@@H](O)c2cc(-c3ncnc4cc(N5CCOCC5)ccc34)c(F)cc2Cl)nn1 + Cc1[nH]c2ccc(F)cc2c1-c1nc2c3cccnc3c3ncccc3c2[nH]1,IC50,second compound 0.0316 µM,670 nM
same,IC50,second compound 0.1 µM,586 nM
same,IC50,second compound 0.316 µM,682 nM
same,IC50,second compound 1 µM,1080 nM
same,IC50,second compound 3.16 µM,< 31.6 nM
same,IC50,second compound 10 µM,858 nM
same,"viability, T/C",[1],59.3%
same,"viability, T/C",[2],79.9%
same,"viability, T/C",[3],103%
same,"viability, T/C",[4],26.9%
same,"viability, T/C",[5],47.1%
same,"viability, T/C",[6],26.8%
same,"viability, T/C",[7],44.1%
same,"viability, T/C",[8],105%
same,"viability, T/C",[9],63.6%
same,"viability, T/C",[10],31.3%
same,"viability, T/C",[11],54.6%
same,"viability, T/C",[12],28.8%
same,"viability, T/C",[13],72.8%
same,"viability, T/C",[14],105%
same,"viability, T/C",[15],66%
same,"viability, T/C",[16],47.4%
same,"viability, T/C",[17],48.6%
same,"viability, T/C",[18],30.1%
same,"viability, T/C",[19],71%
same,"viability, T/C",[20],63.6%
same,"viability, T/C",[21],60.5%
same,"viability, T/C",[22],53.6%
same,"viability, T/C",[23],35%
same,"viability, T/C",[24],24.8%
same,"viability, T/C",[25],40%
same,"viability, T/C",[26],38.4%
same,"viability, T/C",[27],43.3%
same,"viability, T/C",[28],33.5%
same,"viability, T/C",[29],20.1%
same,"viability, T/C",[30],16%
same,"viability, T/C",[31],70.2%
same,"viability, T/C",[32],62.5%
same,"viability, T/C",[33],64.2%
same,"viability, T/C",[34],44.8%
same,"viability, T/C",[35],36.7%
same,"viability, T/C",[36],22.3%
C=CCn1c(=O)c2cnc(Nc3ccc(N4CCN(C)CC4)cc3)nc2n1-c1cccc(C(C)(C)O)n1 + Cc1cnc(CNC(=O)c2c(=O)c3ccc(N4CCCN(C)CC4)nc3n3c2sc2ccccc23)cn1,IC50,second compound 0.0316 µM,< 31.6 nM
same,IC50,second compound 0.1 µM,< 31.6 nM
same,IC50,second compound 0.316 µM,< 31.6 nM
same,IC50,second compound 1 µM,< 31.6 nM
same,IC50,second compound 3.16 µM,< 31.6 nM
same,IC50,second compound 10 µM,< 31.6 nM
same,"viability, T/C",[1],49.8%
same,"viability, T/C",[2],40.3%
same,"viability, T/C",[3],47.3%
same,"viability, T/C",[4],28.2%
same,"viability, T/C",[5],22.4%
same,"viability, T/C",[6],12.1%
same,"viability, T/C",[7],29.4%
same,"viability, T/C",[8],29%
same,"viability, T/C",[9],28.7%
same,"viability, T/C",[10],22.3%
same,"viability, T/C",[11],21.3%
same,"viability, T/C",[12],14.2%
same,"viability, T/C",[13],27.4%
same,"viability, T/C",[14],26.2%
same,"viability, T/C",[15],28.2%
same,"viability, T/C",[16],24.2%
same,"viability, T/C",[17],24.8%
same,"viability, T/C",[18],15.1%
same,"viability, T/C",[19],19.4%
same,"viability, T/C",[20],19.5%
same,"viability, T/C",[21],22.5%
same,"viability, T/C",[22],24.5%
same,"viability, T/C",[23],23.4%
same,"viability, T/C",[24],14.3%
same,"viability, T/C",[25],18.1%
same,"viability, T/C",[26],22.3%
same,"viability, T/C",[27],25.9%
same,"viability, T/C",[28],23.7%
same,"viability, T/C",[29],21.1%
same,"viability, T/C",[30],18.4%
same,"viability, T/C",[31],23%
same,"viability, T/C",[32],22.2%
same,"viability, T/C",[33],24.2%
same,"viability, T/C",[34],19.1%
same,"viability, T/C",[35],25.2%
same,"viability, T/C",[36],23.1%
Cn1ncnc1[C@H]1c2n[nH]c(=O)c3cc(F)cc(c23)N[C@@H]1c1ccc(F)cc1 + Cc1cnc(CNC(=O)c2c(=O)c3ccc(N4CCCN(C)CC4)nc3n3c2sc2ccccc23)cn1,IC50,second compound 0.0316 µM,< 0.999 nM
same,IC50,second compound 0.1 µM,< 0.999 nM
same,IC50,second compound 0.316 µM,< 0.999 nM
same,IC50,second compound 1 µM,< 0.999 nM
same,IC50,second compound 3.16 µM,< 0.999 nM
same,IC50,second compound 10 µM,< 0.999 nM
same,"viability, T/C","second compound 0.0316 µM, first compound 0.000999 µM",47.9%
same,"viability, T/C","second compound 0.0316 µM, first compound 0.00316 µM",25.6%
same,"viability, T/C","second compound 0.0316 µM, first compound 0.00999 µM",39.7%
same,"viability, T/C",[1],24%
same,"viability, T/C","second compound 0.0316 µM, first compound 0.0999 µM",24.7%
same,"viability, T/C",[3],24.9%
same,"viability, T/C","second compound 0.1 µM, first compound 0.000999 µM",26.9%
same,"viability, T/C","second compound 0.1 µM, first compound 0.00316 µM",26.9%
same,"viability, T/C","second compound 0.1 µM, first compound 0.00999 µM",26.6%
same,"viability, T/C",[7],20.6%
same,"viability, T/C","second compound 0.1 µM, first compound 0.0999 µM",24.1%
same,"viability, T/C",[9],19.9%
same,"viability, T/C","second compound 0.316 µM, first compound 0.000999 µM",21%
same,"viability, T/C","second compound 0.316 µM, first compound 0.00316 µM",23.2%
same,"viability, T/C","second compound 0.316 µM, first compound 0.00999 µM",21.1%
same,"viability, T/C",[13],22.9%
same,"viability, T/C","second compound 0.316 µM, first compound 0.0999 µM",21.8%
same,"viability, T/C",[15],19.2%
same,"viability, T/C","second compound 1 µM, first compound 0.000999 µM",20.1%
same,"viability, T/C","second compound 1 µM, first compound 0.00316 µM",19%
same,"viability, T/C","second compound 1 µM, first compound 0.00999 µM",19.8%
same,"viability, T/C",[19],21%
same,"viability, T/C","second compound 1 µM, first compound 0.0999 µM",19.4%
same,"viability, T/C",[21],20.4%
same,"viability, T/C","second compound 3.16 µM, first compound 0.000999 µM",19%
same,"viability, T/C","second compound 3.16 µM, first compound 0.00316 µM",18.6%
same,"viability, T/C","second compound 3.16 µM, first compound 0.00999 µM",21.6%
same,"viability, T/C",[25],19.7%
same,"viability, T/C","second compound 3.16 µM, first compound 0.0999 µM",21.7%
same,"viability, T/C",[27],19.2%
same,"viability, T/C","second compound 10 µM, first compound 0.000999 µM",15.2%
same,"viability, T/C","second compound 10 µM, first compound 0.00316 µM",18.5%
same,"viability, T/C","second compound 10 µM, first compound 0.00999 µM",21.9%
same,"viability, T/C",[31],19.4%
same,"viability, T/C","second compound 10 µM, first compound 0.0999 µM",21.9%
same,"viability, T/C",[33],19.2%
CC1COCCN1c1cc(C2(S(C)(=N)=O)CC2)nc(-c2ccnc3[nH]ccc23)n1 (stereo not drawn) + CN(C)c1ccc(Nc2c3ccc(NC(=O)CCN4CCCC4)cc3nc3cc(NC(=O)CCN4CCCC4)ccc23)cc1,IC50,second compound 0.0316 µM,1040 nM
same,IC50,second compound 0.1 µM,934 nM
same,IC50,second compound 0.316 µM,463 nM
same,IC50,second compound 1 µM,626 nM
same,IC50,second compound 3.16 µM,< 31.6 nM
same,IC50,second compound 10 µM,< 31.6 nM
same,"viability, T/C",[1],91.4%
same,"viability, T/C",[2],74.6%
same,"viability, T/C",[3],89.4%
same,"viability, T/C",[4],51.2%
same,"viability, T/C",[5],21.4%
same,"viability, T/C",[6],14%
same,"viability, T/C",[7],78.4%
same,"viability, T/C",[8],71.3%
same,"viability, T/C",[9],89.4%
same,"viability, T/C",[10],48.1%
same,"viability, T/C",[11],22.4%
same,"viability, T/C",[12],14.6%
same,"viability, T/C",[13],75.7%
same,"viability, T/C",[14],67.3%
same,"viability, T/C",[15],54.2%
same,"viability, T/C",[16],41.2%
same,"viability, T/C",[17],24.4%
same,"viability, T/C",[18],14.1%
same,"viability, T/C",[19],42.9%
same,"viability, T/C",[20],80.2%
same,"viability, T/C",[21],65%
same,"viability, T/C",[22],41.2%
same,"viability, T/C",[23],23.6%
same,"viability, T/C",[24],16%
same,"viability, T/C",[25],34.6%
same,"viability, T/C",[26],45.8%
same,"viability, T/C",[27],34%
same,"viability, T/C",[28],29.5%
same,"viability, T/C",[29],18.3%
same,"viability, T/C",[30],13.2%
same,"viability, T/C",[31],6.13%
same,"viability, T/C",[32],5.83%
same,"viability, T/C",[33],5.26%
same,"viability, T/C",[34],5.47%
same,"viability, T/C",[35],3.58%
same,"viability, T/C",[36],1.72%
